Data set [1] in a line: Determination of the microsomal half-life, rat liver microsomes. The note with it: rat, liver microsomes, pH 7.4.
The nature of data set [2]: Determination of the microsomal half-life, human liver microsomes. Particulars: human, liver microsomes, pH 7.4. Background: Liver microsomes are a subcellular fraction often used to study metabolism.
Procedure: The test substances were incubated in a concentration of 0.5 μM as follows:
0.5 μM test substance are preincubated together with liver microsomes from different species (from rat, human or other species) (0.25 mg of microsomal protein/10 in 0.05 M potassium phosphate buffer of pH 7.4 in microtiter plates at 37° C. for 5 min. The reaction is started by adding NADPH (1 mg/mL). After 0, 5, 10, 15, 20 and 30 min., 50 μl aliquots are removed, and the reaction is immediately stopped and cooled with the same volume of acetonitrile. The samples are frozen until analyzed. The remaining concentration of undegraded test substance is determined by MSMS. The half-life (T½) is determined from the gradient of the signal of test substance/unit time plot, it being possible to calculate the half-life of the test substance, assuming first order kinetics, from the decrease in the concentration of the compound with time. The microsomal clearance (mCl) is calculated from mCl=ln 2/T½/(content of microsomal protein in mg/ml)×1000 [ml/min/mg]
The next data set deals with T1, PDE10A (human) (Homo sapiens, UniProt Q9Y233).
T1 construct: purchased BPS Bioscience
Kind of data set: Measurement of PDE activity (HTRF cAMP kit), human PDE10A. The format is biochemical. The note with it: PDE enzymatic reaction, substrate 20 nM for PDE10, 60 minutes at 29 C. The procedure, abridged: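 Recombinant human PDE10A (10–250 pM range across PDEs) with 20 nM cAMP substrate in 20 mM Tris-HCl pH 7.5, 10 mM MgCl2, 0.1% BSA, compound pre-mixed with enzyme. Ran 60 min at 29 °C. Remaining cAMP read by HTRF, converted to % of uninhibited activity, and IC50 fitted.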
Background: Time-resolved FRET reads energy transfer from a long-lived donor to a nearby acceptor.

Each structure is given as a SMILES string. Structures can show the parent of a compound that is named as a salt.

T1 sequence (Q9Y233 whole entry): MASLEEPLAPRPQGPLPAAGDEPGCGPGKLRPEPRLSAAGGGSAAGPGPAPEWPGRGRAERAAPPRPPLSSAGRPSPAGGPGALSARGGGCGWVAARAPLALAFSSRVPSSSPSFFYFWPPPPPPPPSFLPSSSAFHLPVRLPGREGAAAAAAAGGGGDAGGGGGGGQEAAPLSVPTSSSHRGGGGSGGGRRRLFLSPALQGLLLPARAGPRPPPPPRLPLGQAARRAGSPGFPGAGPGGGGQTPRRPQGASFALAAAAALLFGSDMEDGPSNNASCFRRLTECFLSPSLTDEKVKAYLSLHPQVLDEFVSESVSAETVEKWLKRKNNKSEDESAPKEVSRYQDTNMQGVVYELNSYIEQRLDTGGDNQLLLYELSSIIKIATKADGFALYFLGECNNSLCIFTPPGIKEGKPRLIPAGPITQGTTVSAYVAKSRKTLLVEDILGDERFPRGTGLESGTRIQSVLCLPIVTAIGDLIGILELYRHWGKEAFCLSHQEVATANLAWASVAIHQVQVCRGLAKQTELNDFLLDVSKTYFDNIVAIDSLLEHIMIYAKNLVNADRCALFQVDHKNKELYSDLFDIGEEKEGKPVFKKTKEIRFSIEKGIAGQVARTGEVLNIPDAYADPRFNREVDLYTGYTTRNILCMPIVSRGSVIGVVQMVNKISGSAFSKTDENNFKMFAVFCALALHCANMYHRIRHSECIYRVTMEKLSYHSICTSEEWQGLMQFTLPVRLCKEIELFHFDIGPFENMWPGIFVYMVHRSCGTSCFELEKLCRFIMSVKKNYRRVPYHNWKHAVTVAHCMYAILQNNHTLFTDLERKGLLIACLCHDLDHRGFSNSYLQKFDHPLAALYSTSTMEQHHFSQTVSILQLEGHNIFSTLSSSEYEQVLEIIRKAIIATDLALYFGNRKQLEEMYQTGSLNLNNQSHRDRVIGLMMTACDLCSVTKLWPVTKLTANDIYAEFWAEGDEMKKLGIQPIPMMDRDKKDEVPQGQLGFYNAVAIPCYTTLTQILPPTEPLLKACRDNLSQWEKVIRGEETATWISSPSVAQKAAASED

On to `Cn1nccc1-c1cccc2c1C(=O)N(CCc1cn3ccccc3n1)C2` [Example 239, 2-(2-Imidazo[1,2-a]pyridin-2-yl-ethyl)-7-(2-methyl-2H-pyrazol-3-yl)-2,3-dihydro-isoindol-1-one], for which the microsomal CLint at 0.5 μM in data set [1] and in data set [2] was less than 100 µL/min/mg in each case. Also, the IC50 – broadly, the concentration that inhibits the measured activity by half – against PDE10A (human) was 0.1 to 0.2 µM.
Take `Cc1cccnc1CCN1Cc2nccc(N3CCOCC3)c2C1=O` [compound 522, 6-[2-(3-Methyl-2-pyridyl)ethyl]-4-morpholino-7H-pyrrolo[3,4-b]pyridin-5-one]: the microsomal CLint at 0.5 μM in data set [1] and in data set [2] was less than 100 µL/min/mg each time. At PDE10A (human), this compound came in with an IC50 of 0.1 to 0.2 µM.
As for `Cn1nccc1-c1ccnc2c1CN(CCc1ccc3ccccc3n1)C2=O` [compound 459, 4-(2-Methyl-2H-pyrazol-3-yl)-6-(2-quinolin-2-yl-ethyl)-5,6-dihydro-pyrrolo[3,4-b]pyridin-7-one trifluoroacetate], the microsomal CLint at 0.5 μM in data set [1] and in data set [2] was less than 100 µL/min/mg each time. The compound also returned an IC50 at PDE10A (human) of 0.2 to 0.5 µM.
With `O=C1c2c(cccc2N2CCC3(COC3)C2)CN1CCc1ccc2ccccc2n1` [Example 134, 7-(2-Oxa-6-aza-spiro[3.4]oct-6-yl)-2-(2-quinolin-2-yl-ethyl)-2,3-dihydro-isoindol-1-one], the microsomal CLint – broadly, a measure of how fast metabolising enzymes remove a compound, apart from limits set by blood flow – at 0.5 μM in data set [1] was 100 to 220 µL/min/mg; in data set [2] it was more than 220 µL/min/mg. At PDE10A (human), this compound gave an IC50 of less than 0.1 µM.
On the same counts, the results for `Cc1cnc(CCN2Cc3nccc(N4CCOCC4)c3C2=O)c(C)c1` [compound 489, 6-[2-(3,5-Dimethyl-2-pyridyl)ethyl]-4-morpholino-7H-pyrrolo[3,4-b]pyridin-5-one] are 100 to 220 µL/min/mg, 100 to 220 µL/min/mg and less than 0.1 µM.
Turning to `O=C1c2c(ccc(F)c2-c2ccncc2)CN1CCc1ccc2ccccc2n1` [Example 14, 6-Fluoro-7-pyridin-4-yl-2-(2-quinolin-2-yl-ethyl)-2,3-dihydro-isoindol-1-one], the microsomal CLint at 0.5 μM in data set [1] and in data set [2] was 100 to 220 µL/min/mg each time. Moreover, at PDE10A (human), the IC50 is less than 0.1 µM.
For `COc1cccc(CCN2Cc3nccc(-c4ccncc4)c3C2=O)n1` [compound 553, 6-[2-(6-Methoxy-2-pyridyl)ethyl]-4-(4-pyridyl)-7H-pyrrolo[3,4-b]pyridin-5-one], the microsomal CLint at 0.5 μM in data set [1] and in data set [2] was 100 to 220 µL/min/mg throughout. This compound also gave a 50% inhibitory concentration (IC50) against PDE10A (human) of less than 0.1 µM.
With `O=C1c2c(cccc2N2CCOCC2)CN1CCc1nc2ccccc2s1` [Example 263, 2-(2-Benzothiazol-2-yl-ethyl)-7-morpholin-4-yl-2,3-dihydro-isoindol-1-one trifluoroacetate], the microsomal CLint at 0.5 μM in data set [1] is less than 100 µL/min/mg; in data set [2] it was 100 to 220 µL/min/mg. Moreover, the IC50 on PDE10A (human) is less than 0.1 µM.
As for `Cc1cc(-c2ccnc3c2C(=O)N(CCc2ccc4ccccc4n2)C3)n(C)n1` [Example 334, 4-(2,5-Dimethyl-2H-pyrazol-3-yl)-6-(2-quinolin-2-yl-ethyl)-6,7-dihydro-pyrrolo[3,4-b]pyridin-5-one], the microsomal CLint at 0.5 μM in data set [1] and in data set [2] was less than 100 µL/min/mg each time. On PDE10A (human), this compound showed an IC50 of 0.1 to 0.2 µM.
In the case of `O=C1c2c(N3CCOCC3)ccnc2CN1CCc1ccc2ccccc2n1` [Example 119, 4-Morpholin-4-yl-6-(2-quinolin-2-yl-ethyl)-6,7-dihydro-pyrrolo[3,4-b]pyridin-5-one], the microsomal CLint at 0.5 μM in data set [1] and in data set [2] was less than 100 µL/min/mg in each case. Besides, the IC50 on PDE10A (human) is less than 0.1 µM.
For `O=C(O)C1CCN(c2ccnc3c2C(=O)N(CCc2ccc4ccccc4n2)C3)CC1` [Example 366, 1-[5-Oxo-6-(2-quinolin-2-yl-ethyl)-6,7-dihydro-5H-pyrrolo[3,4-b]pyridin-4-yl]-piperidine-4-carboxylic acid], the microsomal CLint at 0.5 μM in data set [1] and in data set [2] was less than 100 µL/min/mg throughout. Also, on PDE10A (human), the IC50 is 0.1 to 0.2 µM.
Consider `O=C1c2c(NC3COC3)ccnc2CN1CCc1ccc2ccccc2n1` [Example 275, 4-(Oxetan-3-ylamino)-6-(2-quinolin-2-yl-ethyl)-6,7-dihydro-pyrrolo[3,4-b]pyridin-5_], for which the microsomal CLint at 0.5 μM in data set [1] and in data set [2] was less than 100 µL/min/mg each time. For the same compound, the IC50 at PDE10A (human) is less than 0.1 µM.
Turning to `O=C1c2c(cccc2-c2cccnc2)CN1CCc1cn2ccccc2n1` [Example 235, 2-(2-Imidazo[1,2-a]pyridin-2-yl-ethyl)-7-pyridin-3-yl-2,3-dihydro-isoindol-1-one], the figures for the microsomal CLint at 0.5 μM in data set [1] and in data set [2] were less than 100 µL/min/mg and 100 to 220 µL/min/mg, respectively. This compound returned an IC50 against PDE10A (human) of less than 0.1 µM.
For `O=C1c2c(cccc2N2CCOCC2)CN1CCc1ccc2ccccc2n1` [Example 99, 7-Morpholin-4-yl-2-(2-quinolin-2-yl-ethyl)-2,3-dihydro-isoindol-1-one], in that order: less than 100 µL/min/mg, 100 to 220 µL/min/mg and less than 0.1 µM.
For the compound `COc1ccc(-c2ccncc2)c2c1CN(CCc1nc3ccccc3n1C)C2=O` [Example 370, 4-Methoxy-2-[2-(1-methyl-1H-benzoimidazol-2-yl)-ethyl]-7-pyridin-4-yl-2,3-dihydro-isoindol-1-one], the microsomal CLint at 0.5 μM is less than 100 µL/min/mg in data set [1] and more than 220 µL/min/mg in data set [2]. Besides, on PDE10A (human), the IC50 was less than 0.1 µM.
As to `CN(C)C1CCN(c2ccnc3c2C(=O)N(CCc2ccc4ccccc4n2)C3)CC1` [Example 363, 4-(4-Dimethylamino-piperidin-1-yl)-6-(2-quinolin-2-yl-ethyl)-6,7-dihydro-pyrrolo[3,4-b]pyridin-5-one hydrochloride], the microsomal CLint at 0.5 μM in data set [1] and in data set [2] was less than 100 µL/min/mg each time. Besides, at PDE10A (human), the IC50 fell in the range of 0.2 to 0.5 µM.
In the case of `O=C1c2c(cccc2N2CCOCC2)CN1CCc1cccc(-c2ncccn2)c1` [Example 120, 7-Morpholino-2-(3-(pyrimidin-2-yl)phenethyl)isoindolin-1-one], the microsomal CLint at 0.5 μM in data set [1] and in data set [2] was 100 to 220 µL/min/mg throughout. At PDE10A (human), this compound gave an IC50 of 0.2 to 0.5 µM.
For `Cc1cnc(CCN2Cc3nccc(-c4ccncc4)c3C2=O)cc1C` [compound 507, 6-[2-(4,5-Dimethyl-2-pyridyl)ethyl]-4-(4-pyridyl)-7H-pyrrolo[3,4-b]pyridin-5-one trifluoroacetate], the figures for the microsomal CLint at 0.5 μM in data set [1] and in data set [2] were more than 220 µL/min/mg and 100 to 220 µL/min/mg, respectively. On PDE10A (human), this compound registered an IC50 of 0.2 to 0.5 µM.
For `O=C1c2c(cccc2-c2ccncc2)CN1CCc1ccc2sccc2n1` [Example 19, 7-Pyridin-4-yl-2-(2-thieno[3,2-b]pyridin-5-yl-ethyl)-2,3-dihydro-isoindol-1-one], the microsomal CLint at 0.5 μM in data set [1] was 100 to 220 µL/min/mg; in data set [2] it was more than 220 µL/min/mg. The compound further yielded an IC50 on PDE10A (human) of less than 0.1 µM.
Consider `Cn1ccc(-c2ccnc3c2C(=O)N(CCc2ccc4ccccc4n2)C3)c1` [Example 337, 4-(1-Methyl-1H-pyrrol-3-yl)-6-(2-quinolin-2-yl-ethyl)-6,7-dihydro-pyrrolo[3,4-b]pyridin-5-one], for which the figures for the microsomal CLint at 0.5 μM in data set [1] and in data set [2] were more than 220 µL/min/mg and 100 to 220 µL/min/mg, respectively. The compound further showed an IC50 against PDE10A (human) of 0.1 to 0.2 µM.
With `O=C1c2c(-c3cncnc3)cc[n+]([O-])c2CN1CCc1ccc2ccccc2n1` [Example 296, 1-Oxy-4-pyrimidin-5-yl-6-(2-quinolin-2-yl-ethyl)-6,7-dihydro-pyrrolo[3,4-b]pyridin-5-one], the microsomal CLint at 0.5 μM in data set [1] and in data set [2] was less than 100 µL/min/mg each time. Also, the IC50 at PDE10A (human) is less than 0.1 µM.
As for `[2H]c1nc2c(c(N3C([2H])([2H])C([2H])([2H])OC([2H])([2H])C3([2H])[2H])c1[2H])C(=O)N(C([2H])([2H])Cc1nc3c([2H])c([2H])c([2H])c([2H])c3c([2H])c1[2H])C2([2H])[2H]` [compound 510, 2,3,7,7-Tetradeuterio-6-[1,1-dideuterio-2-(3,4,5,6,7,8-hexadeuterio-2-quinolyl)ethyl]-4-(2,2,3,3,5,5,6,6-octadeuteriomorpholin-4-yl)pyrrolo[3,4-b]pyridin-5-one], the microsomal CLint at 0.5 μM in data set [1] was more than 220 µL/min/mg; in data set [2], 100 to 220 µL/min/mg. In addition, at PDE10A (human), the IC50 is less than 0.1 µM.
Regarding `Cn1nccc1-c1ccc(F)c2c1C(=O)N(CCc1cn3ccccc3n1)C2` [Example 382, 4-Fluoro-2-(2-imidazo[1,2-a]pyridin-2-yl-ethyl)-7-(2-methyl-2H-pyrazol-3-yl)-2,3-dihydro-isoindol-1-one], the microsomal CLint at 0.5 μM in data set [1] and in data set [2] was less than 100 µL/min/mg in each case. Further, the IC50 against PDE10A (human) is less than 0.1 µM.
As for `Cc1ncccc1-c1cccc2c1C(=O)N(CCc1ccc3ccccc3n1)C2` [Example 86, 7-(2-Methyl-pyridin-3-yl)-2-(2-quinolin-2-yl-ethyl)-2,3-dihydro-isoindol-1-one], the microsomal CLint at 0.5 μM was more than 220 µL/min/mg in data set [1] and 100 to 220 µL/min/mg in data set [2]. For the same compound, the IC50 against PDE10A (human) was less than 0.1 µM.
As for `O=C1c2c(-c3ccncc3)ccc(F)c2CN1CCc1cn2ccccc2n1` [Example 280, 4-Fluoro-2-(2-imidazo[1,2-a]pyridin-2-yl-ethyl)-7-pyridin-4-yl-2,3-dihydro-isoindol-1-one], the microsomal CLint at 0.5 μM in data set [1] and in data set [2] was 100 to 220 µL/min/mg throughout. The compound further came in with an IC50 against PDE10A (human) of less than 0.1 µM.
As to `O=C1c2c(cccc2-c2cncnc2)CN1CCc1nc2ccccc2[nH]1` [Example 312, 2-[2-(1H-Benzoimidazol-2-yl)-ethyl]-7-pyrimidin-5-yl-2,3-dihydro-isoindol-1-one trifluoroacetate], the microsomal CLint at 0.5 μM in data set [1] and in data set [2] was less than 100 µL/min/mg throughout. Further, the IC50 at PDE10A (human) was less than 0.1 µM.

These data come from US9938269B2, “Inhibitor compounds of phosphodiesterase type 10A” (ABBVIE INC., priority 2011, dated 2018).
